The target of one test is T1, Glucocorticoid receptor (Homo sapiens, UniProt P04150). Further: in other assays of this panel Not Active means under 50% inhibition at 10 µM.
T1 sequence (P04150 whole entry): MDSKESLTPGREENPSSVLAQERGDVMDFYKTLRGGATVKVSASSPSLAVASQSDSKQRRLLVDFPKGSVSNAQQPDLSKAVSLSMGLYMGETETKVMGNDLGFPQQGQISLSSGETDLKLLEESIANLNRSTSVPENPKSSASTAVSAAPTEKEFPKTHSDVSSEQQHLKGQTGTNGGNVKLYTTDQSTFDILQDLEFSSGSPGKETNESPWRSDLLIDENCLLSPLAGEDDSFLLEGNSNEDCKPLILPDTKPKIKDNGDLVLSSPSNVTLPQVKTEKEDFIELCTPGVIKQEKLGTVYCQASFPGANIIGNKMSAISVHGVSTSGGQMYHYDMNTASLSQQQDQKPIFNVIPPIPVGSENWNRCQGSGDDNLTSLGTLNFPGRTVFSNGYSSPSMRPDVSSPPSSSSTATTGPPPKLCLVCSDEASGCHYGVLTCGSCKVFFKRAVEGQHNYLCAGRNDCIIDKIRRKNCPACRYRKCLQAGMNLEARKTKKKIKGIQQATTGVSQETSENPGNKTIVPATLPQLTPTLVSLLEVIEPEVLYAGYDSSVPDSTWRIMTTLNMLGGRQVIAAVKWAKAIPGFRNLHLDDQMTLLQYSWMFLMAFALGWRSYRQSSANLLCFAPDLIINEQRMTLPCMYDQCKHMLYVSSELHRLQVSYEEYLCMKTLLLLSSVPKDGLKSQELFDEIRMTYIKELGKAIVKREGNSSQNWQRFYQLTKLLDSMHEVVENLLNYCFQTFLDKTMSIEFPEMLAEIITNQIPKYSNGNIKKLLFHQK
Particulars: hela s3.

A short description of test [1]: DRUGMATRIX: Phosphodiesterase PDE4 enzyme inhibition (substrate: [3H]cAMP + cAMP). Particulars: u-937; Not Active = under 50% inhibition at 10 µM.
Test [2] has as its target T2, Cysteinyl leukotriene receptor 1 (Homo sapiens, UniProt Q9Y271). Further: in other assays of this panel Not Active means under 50% inhibition at 10 µM.
T2 sequence (Q9Y271 whole entry): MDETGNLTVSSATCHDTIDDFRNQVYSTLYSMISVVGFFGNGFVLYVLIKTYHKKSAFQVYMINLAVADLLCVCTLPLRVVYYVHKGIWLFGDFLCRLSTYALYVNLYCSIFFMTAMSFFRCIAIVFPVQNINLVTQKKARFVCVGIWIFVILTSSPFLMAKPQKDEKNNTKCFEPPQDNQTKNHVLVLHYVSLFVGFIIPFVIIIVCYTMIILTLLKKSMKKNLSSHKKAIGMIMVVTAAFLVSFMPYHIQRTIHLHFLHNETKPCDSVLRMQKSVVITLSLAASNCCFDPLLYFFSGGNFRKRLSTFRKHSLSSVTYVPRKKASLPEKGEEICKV
The test is classed as cell membranes, Membrane. Particulars: cho-k1.

For test [3], the target named is T3, Angiotensin-converting enzyme (Oryctolagus cuniculus, UniProt P12822).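 Further: enzymatic inhibition of angiotensin-converting enzyme measured with FAPGG as the substrate; in other assays of this panel Not Active means under 50% inhibition at 10 µM.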
T3 sequence (P12822 whole entry): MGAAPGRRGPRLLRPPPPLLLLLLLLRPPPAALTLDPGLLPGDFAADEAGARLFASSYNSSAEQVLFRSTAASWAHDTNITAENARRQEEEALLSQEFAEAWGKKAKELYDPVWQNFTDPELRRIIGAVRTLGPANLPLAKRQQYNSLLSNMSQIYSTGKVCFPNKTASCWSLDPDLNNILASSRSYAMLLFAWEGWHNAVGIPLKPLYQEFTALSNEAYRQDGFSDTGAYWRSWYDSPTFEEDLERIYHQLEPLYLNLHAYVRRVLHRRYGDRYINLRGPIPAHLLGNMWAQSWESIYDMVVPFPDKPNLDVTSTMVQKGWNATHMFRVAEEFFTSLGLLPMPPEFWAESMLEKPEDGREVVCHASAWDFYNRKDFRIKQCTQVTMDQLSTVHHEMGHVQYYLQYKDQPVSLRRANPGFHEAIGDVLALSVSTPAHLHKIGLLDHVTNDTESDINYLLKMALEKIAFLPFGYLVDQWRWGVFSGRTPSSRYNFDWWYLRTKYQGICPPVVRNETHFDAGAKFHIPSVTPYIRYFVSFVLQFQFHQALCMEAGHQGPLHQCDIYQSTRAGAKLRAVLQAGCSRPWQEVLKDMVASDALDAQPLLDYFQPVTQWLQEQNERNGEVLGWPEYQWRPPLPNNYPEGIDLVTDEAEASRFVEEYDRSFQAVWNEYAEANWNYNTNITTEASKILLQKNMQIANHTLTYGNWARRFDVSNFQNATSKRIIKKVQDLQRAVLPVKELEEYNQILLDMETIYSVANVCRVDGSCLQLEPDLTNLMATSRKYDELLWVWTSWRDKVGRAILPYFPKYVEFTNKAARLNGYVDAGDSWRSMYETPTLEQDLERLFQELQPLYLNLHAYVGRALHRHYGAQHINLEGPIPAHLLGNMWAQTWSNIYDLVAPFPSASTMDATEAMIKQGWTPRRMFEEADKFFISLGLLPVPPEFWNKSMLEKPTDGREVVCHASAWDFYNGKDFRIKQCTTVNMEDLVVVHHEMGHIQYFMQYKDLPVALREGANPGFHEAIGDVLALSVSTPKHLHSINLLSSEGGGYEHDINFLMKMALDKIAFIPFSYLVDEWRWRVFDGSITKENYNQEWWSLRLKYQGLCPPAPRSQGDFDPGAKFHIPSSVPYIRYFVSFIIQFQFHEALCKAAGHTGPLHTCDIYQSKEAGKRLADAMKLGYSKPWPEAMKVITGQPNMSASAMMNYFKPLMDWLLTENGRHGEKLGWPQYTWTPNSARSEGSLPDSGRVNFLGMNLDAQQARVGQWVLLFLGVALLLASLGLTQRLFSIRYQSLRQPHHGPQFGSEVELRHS
The format is tissue-based, Lung.

For test [4], the target named is T4, Type-2 angiotensin II receptor (Homo sapiens, UniProt P50052). Further: in other assays of this panel Not Active means under 50% inhibition at 10 µM.
T4 sequence (P50052 whole entry): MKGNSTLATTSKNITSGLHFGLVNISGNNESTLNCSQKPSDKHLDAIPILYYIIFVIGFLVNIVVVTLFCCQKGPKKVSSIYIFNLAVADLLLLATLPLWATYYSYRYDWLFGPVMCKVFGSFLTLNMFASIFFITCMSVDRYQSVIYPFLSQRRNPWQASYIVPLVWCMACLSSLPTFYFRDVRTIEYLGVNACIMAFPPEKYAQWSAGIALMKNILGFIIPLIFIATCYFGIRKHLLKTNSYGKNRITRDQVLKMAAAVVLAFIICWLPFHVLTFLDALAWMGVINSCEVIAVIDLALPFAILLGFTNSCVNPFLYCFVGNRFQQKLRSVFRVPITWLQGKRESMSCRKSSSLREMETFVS
The format is cell-based. Particulars: cho-k1.

Test [5] addresses Sodium-dependent dopamine transporter (Homo sapiens, UniProt Q01959). The test can be described thus: DRUGMATRIX: Dopamine Transporter radioligand binding (ligand: [125I] RTI-55). The test is classed as cell membranes, CHO-K1, Membrane. Particulars: Not Active = under 50% inhibition at 10 µM.

The values that follow come from ChEMBL document CHEMBL1909046, “DrugMatrix in vitro pharmacology data”.

Chain of Sodium-dependent dopamine transporter (Q01959 whole entry): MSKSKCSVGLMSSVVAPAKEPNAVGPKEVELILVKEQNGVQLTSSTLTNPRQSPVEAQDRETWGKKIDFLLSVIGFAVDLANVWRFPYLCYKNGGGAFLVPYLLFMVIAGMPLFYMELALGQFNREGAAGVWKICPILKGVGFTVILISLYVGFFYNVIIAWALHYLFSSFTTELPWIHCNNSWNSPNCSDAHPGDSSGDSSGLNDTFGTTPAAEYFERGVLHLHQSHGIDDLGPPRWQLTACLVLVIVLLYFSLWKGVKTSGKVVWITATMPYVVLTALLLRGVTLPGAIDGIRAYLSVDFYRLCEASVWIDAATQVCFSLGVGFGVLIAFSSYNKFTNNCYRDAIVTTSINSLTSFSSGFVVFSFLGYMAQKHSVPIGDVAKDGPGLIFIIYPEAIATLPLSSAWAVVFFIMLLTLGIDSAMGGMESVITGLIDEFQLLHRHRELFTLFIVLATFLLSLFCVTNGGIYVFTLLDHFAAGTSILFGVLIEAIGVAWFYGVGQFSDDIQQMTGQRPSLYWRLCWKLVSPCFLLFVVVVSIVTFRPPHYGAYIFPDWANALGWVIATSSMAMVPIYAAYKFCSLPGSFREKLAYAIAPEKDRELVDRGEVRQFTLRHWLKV

Take `CCn1cc(C(=O)O)c(=O)c2cnc(N3CCCC3)nc21` [PIROMIDIC ACID]: the IC50 entry (on Glucocorticoid receptor; in test [1]; in test [2]; in test [3]; in test [4]; in test [5] (cho-k1)) was “Not Active” throughout. Besides, in test [1], the Ki (usually a measure of affinity in units of concentration, obtained from inhibition or displacement) is listed as “Not Active”.

Take `COC(=O)Nc1nc2ccc(C(=O)c3cccs3)cc2[nH]1` [NOCODAZOLE]: the IC50 (in general, the concentration at which inhibition is half-maximal) is “Not Active” against Glucocorticoid receptor; “Not Active” in test [1]; “Not Active” in test [2]; “Not Active” in test [3]; “Not Active” in test [4]; 6.23 µM in test [5] (read-out: IC50). Also, the inhibitory constant (Ki) result in test [1] is “Not Active”; in test [5] (read-out: Ki), 4.95 µM.

On to AURANOFIN, for which the Ki at Glucocorticoid receptor is 0.599 µM; in test [1], “Not Active”; in test [2], “Not Active”; in test [3], “Not Active”; in test [4] it was “Not Active”; in test [5] (cho-k1), “Not Active”. Further, the IC50 result in test [1], in test [2], in test [3], in test [4] and in test [5] (cho-k1) was “Not Active” throughout.

As to `Cc1nnc2n1-c1ccc(Cl)cc1C(c1ccccc1)=NC2` [ALPRAZOLAM], the concentration for half-maximal inhibition (IC50) result (against Glucocorticoid receptor; in test [1]; in test [2]; in test [3]; in test [4]; in test [5] (cho-k1)) was “Not Active” in each case. The Ki entry in test [1] is on record as “Not Active”.

Take `C[C@@H]1CC[C@@]2(OC1)O[C@H]1[C@@H](O)[C@H]3[C@@H]4CC[C@H]5C[C@@H](O[C@@H]6O[C@H](CO)[C@H](O[C@@H]7O[C@H](CO)C(O)[C@H](O[C@@H]8OC[C@@H](O)[C@H](O)[C@H]8O)[C@H]7O[C@@H]7O[C@H](CO)[C@H](O)[C@H](O[C@@H]8O[C@H](CO)[C@@H](O)[C@H](O)[C@H]8O)[C@H]7O)[C@H](O)[C@H]6O)[C@H](O)C[C@]5(C)[C@H]4CC[C@]3(C)[C@H]1[C@@H]2C` (stereo not given in full) [DIGITONIN]: the IC50 entry (at Glucocorticoid receptor; in test [1]; in test [2]; in test [3]; in test [4]; in test [5] (cho-k1)) was “Not Active” each time. For the same compound, the Ki result in test [1] is “Not Active”.
